For one data set, the system named is GlyR. Set-up: method as in Breitinger et al., 2016. The settings on record: ref Breitinger et al., 2016, cited from earlier work; for on-rate of current enhancement: saturating concentrations; for EC50: read-out: EC50 for augmentation of glycine-mediated responses.
The test system of data set [1] is Male Swiss Webster mice. Briefly: Hotplate test (55°C), latency until pain-related reaction. The class given is in vivo. The protocol:
(§1) See Supplementary Material S1 for experimental details. On the day of the experiment, mice were weighed and then fasted for 5–6 h to reduce variability in initial blood glucose levels (BGL). Mice had been accustomed to the test apparatus for 2–3 h on two separate days before experiments. Two hours before testing, mice were acclimatized to the measuring apparatus. For hotplate tests, mice were accustomed to the testing condition by placing them one by one on a switched off hotplate at room temperature for the set cut off time of 30 s. One hour before testing, baseline measurements for touch sensitivity were recorded. For both experiments, mice were then injected according to protocol. Blood glucose level was measured before and after injections (Figure 3A).
The investigator performing the measurements was blinded to treatment groups and to the blood glucose readings.

Data set [2] concerns recombinant α1, α1-β, and α3 GlyRs. Set-up: method as in Breitinger et al., 2015; Breitinger and Breitinger, 2016. The settings on record: HEK293 cells, ref Breitinger et al., 2015, 2016; cited from earlier work.
Data set [3] has as its system Male Swiss Webster mice. The data set is described as follows: Tactile sensitivity (von Frey) test, paw withdrawal threshold. The class given is in vivo. The settings on record: for PWT ratio: individual mice and avg. The protocol: as §1
Mice were divided into four experimental groups (see main text). The investigator performing the measurements was blinded to treatment groups and to the blood glucose readings. All mice were measured for their Paw withdrawal threshold (PWT) using von Frey filaments on at least one occasion before the testing day to reduce the stress or surprise from the experiment. We used the up-and-down method to determine pain withdrawal thresholds (PWT; Bradman et al., [2015]) with 8 mN as the starting value (see Supplementary Material for details). Baseline PWT values for each mouse were determined before treatment. […] Measurements were limited to the time window of 5 min after the second injection (strychnine or vehicle) due to the fast elimination kinetics of low doses of strychnine.
• (i) Baseline PWT determination for each mouse, 30 min prior to the experiment; • (ii) at time t = 0, mice were injected with glucose (2 g/kg) or vehicle • (iii) at t = 30 min, mice were injected with strychnine (0.2 or 0.5 mg/kg) or vehicle; • (iv) at t = 35 min pain-related behavior was assessed.
Von Frey Experiment – The investigator performing the measurements was blinded to treatment groups and to the blood glucose readings. All mice were measured for their paw withdrawal threshold using the Von Frey filaments on at least one occasion before the testing day. That was done to reduce the stress or surprise that might result from exposure to new conditions on the day of the experiment. A baseline reading for each mouse is also taken before the test with the consideration to leave at least one-day gab between baseline and experiment measurement to minimize any effect of repetitive measurement. […]
We used the up-and-down method to determine pain withdrawal thresholds (PWT) (Bradman et al., 2015). To assess the starting force, baseline 50% PWT was measured in five naïve mice (20-35 g) by application of von Frey hairs in an ascending order of their applied force. […] Baseline PWT values for each mouse were determined before treatment. […]

The target of data set [4] is T1, recombinant α3L GlyRs expressed in HEK293 cells (Homo sapiens, UniProt O75311).
T1 construct: expressed in transfected cells; host or cells: HEK293
T1 sequence (O75311 34-464): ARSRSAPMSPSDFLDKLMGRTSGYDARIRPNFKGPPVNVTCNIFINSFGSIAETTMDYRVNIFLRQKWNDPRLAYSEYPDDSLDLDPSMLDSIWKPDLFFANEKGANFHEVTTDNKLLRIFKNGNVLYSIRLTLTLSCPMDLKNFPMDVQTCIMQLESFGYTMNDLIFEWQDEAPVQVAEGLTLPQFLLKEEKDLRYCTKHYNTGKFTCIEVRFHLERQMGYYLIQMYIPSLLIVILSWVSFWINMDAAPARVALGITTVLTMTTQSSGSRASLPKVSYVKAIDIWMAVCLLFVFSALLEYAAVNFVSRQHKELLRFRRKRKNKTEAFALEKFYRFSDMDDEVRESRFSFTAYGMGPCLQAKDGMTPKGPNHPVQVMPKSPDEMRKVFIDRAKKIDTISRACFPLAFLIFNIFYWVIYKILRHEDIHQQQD
Briefly: Whole-cell patch-clamp recordings of GlyR-transfected HEK293 cells. The class given is cell-based. The note with it: for EC50 / IC50: n = 7 cells; for EC50: mean ± SEM, read-out: EC50 of glycine-induced currents; for IC50: IC50 of strychnine inhibition; for IC50 / Ki: 60 μM glycine; for Ki: Ki of strychnine (Cheng-Prusoff). (In general: The patch-clamp technique gives a direct electrical read-out from membranes.)
Description: Current responses from GlyR-transfected HEK293 cells were measured at room temperature (21–23°C) at a holding potential of −50 mV using a HEKA EPC10 amplifier (HEKA Electronics, Lambrecht, Germany) controlled by Pulse software (HEKA Electronics). Recording pipettes were pulled from borosilicate glass (World Precision Instruments, Berlin, Germany) using a Sutter P-97 horizontal puller (Sutter, Novato, CA, USA). Solutions were applied using an Octaflow system (NPI electronics, Tamm, Germany). The external buffer consisted of 135 mM NaCl, 5.5 mM KCl, 2 mM CaCl2, 1.0 mM MgCl2, and 10 mM Hepes (pH adjusted to 7.4 with NaOH); the internal buffer was 140 mM CsCl, 1.0 mM CaCl2, 2.0 mM MgCl2, 5.0 mM EGTA, and 10 mM Hepes (pH adjusted to 7.2 with CsOH). […] Dose-response data were fitted to the Hill equation (see Supplementary Material) to determine EC50 and IC50.
Ki was calculated using the Cheng-Prusoff correction, significance was tested using one-way ANOVA with p < 0.05 considered significant. […] All data are means ± SEM; significance levels (relative to control) are indicated: *p ≤ 0.5; **p ≤ 0.01; ns, not significant.
Cell Culture and Transfection – HEK293 cells were grown in 10 cm tissue culture Petri dishes in Eagle minimal essential medium (EMEM) (Lonza, Basel, Switzerland) supplemented with 10% FBS (Invitrogen, Karlsruhe, Germany) and penicillin/streptomycin (Sigma-Aldrich, Munich, Germany) at 5% CO2 and 37 °C in a water saturated atmosphere. For electrophysiological experiments, cells were plated on acetone treated glass coverslips in 24 well plates. Transfection was performed 1 day after cell passage using polyethyleneimine (PEI) (Sigma-Aldrich, Munich, Germany): 0.75 µg of receptor DNA and 1.0 µg of green fluorescent protein DNA were mixed in 50 µl EMEM; in a second Eppendorf tube, 3.5 µl PEI was added to 50 µl EMEM, mixed and combined with the DNA solution. After 20 min incubation at room temperature, the transfection solution was added dropwise to the cells. Measurements were performed 1-3 days after transfection.
Electrophysiological Recordings and Data Analysis – Current responses from GlyR-transfected HEK293 cells were measured at room temperature (21-23°C) at a holding potential of -50 mV. Whole-cell recordings were performed using a HEKA EPC10 amplifier (HEKA Electronics, Lambrecht, Germany) controlled by Pulse software (HEKA Electronics). Recording pipettes were pulled from borosilicate glass (World Precision Instruments, Berlin, Germany) using a Sutter P-97 horizontal puller (Sutter, Novato, CA).

Another data set has as its system mice. The settings on record: cited from earlier work; for LD50: mice, Patocka, 2009.

Values joined by “and” are separate entries in the source; they are usually repeats but may differ in a detail not shown here. Equal values may be shown once. Read-outs that look alike come from different tables or passages of the source.

With `OC[C@H]1O[C@@H](O[C@H]2[C@H](O)[C@@H](O)C(O)O[C@@H]2CO)[C@H](O)[C@@H](O)[C@H]1O` (mixture of isomers) [Lactose, lactose], in the data set with GlyR, the “on-rate of current enhancement” value is given as ~ 1.5 h.
The EC50 is the concentration needed to bring the measured effect to its halfway point. Turning to `OC[C@H]1OC(O)[C@H](O)[C@@H](O)[C@@H]1O` (stereo partly shown) [Glucose, glucose], in the data set on GlyR, the EC50 was 6000 to 7000 µM and the “on-rate of current enhancement” value is recorded as below 0.5 h. Besides, the “average normalized latency time” value with Male Swiss Webster mice [1] (glucose 2 g/kg IP, no strychnine, normalized to baseline, mean ± SEM) was 1.79 ± 0.18. Further, the normalized response time with Male Swiss Webster mice [1] (glucose 2 g/kg pretreatment followed by 0.2 mg/kg strychnine) is given as 1.72 ± 0.44. Also, the normalized response time in the data set with Male Swiss Webster mice [1] (glucose 2 g/kg prior to 0.5 mg/kg strychnine challenge) came to 0.74 ± 0.15. In addition, the “reduction of EC50 value” in data set [2] is reported as 2–4 fold. The “time after which effects on pain-related behavior were fully developed” value in the data set with Male Swiss Webster mice [3] (glucose 2 g/kg IP) worked out at 20 min.
As to `OC[C@H]1O[C@@](CO)(O[C@H]2O[C@H](CO)[C@@H](O)[C@H](O)[C@H]2O)[C@@H](O)[C@@H]1O` [Sucrose, sucrose], the “on-rate of current enhancement” value in the data set with GlyR was ~ 1.5 h.
Regarding `NCC(=O)O` [Glycine, glycine], the EC50 in data set [4] (after overnight preincubation with 50 mM glucose) is 49.9 ± 5.3 µM; in data set [4] (control, no glucose preincubation (5.5 mM glucose in medium)) it was 106 ± 16 µM.
`O=C(CO)[C@@H](O)[C@H](O)[C@H](O)CO` [Fructose, fructose]: in the data set with GlyR, the concentration giving a half-maximal response (EC50) was 6000 to 7000 µM and the “on-rate of current enhancement” value is below 0.5 h.
As usually defined, the LD50 is the dose expected to kill half of the subjects tested. Broadly, the IC50 is the midpoint of a concentration-inhibition curve. The Ki is a measure of affinity in units of concentration, obtained from inhibition or displacement. As for `O=C1C[C@@H]2OCC=C3CN4CC[C@]56c7ccccc7N1[C@H]5[C@H]2[C@H]3C[C@H]46` [Strychnine, strychnine], the “normalized time to response” value with Male Swiss Webster mice [1] (strychnine 0.2 mg/kg IP, no glucose) is given as 0.63 ± 0.10. Also, in the data set on Male Swiss Webster mice [1] (strychnine 0.5 mg/kg IP, no glucose), the normalized response time was determined as 0.30 ± 0.07. Also, in the data set with mice (2 mg/kg IP, Swiss Webster mice, ref Maher et al., 2014), the lethality is 85%. Moreover, the LD50 in the data set with mice (intraperitoneal (IP) injection, ref Prasad et al., 1981) is listed as 0.98 mg/kg; in the data set with mice (oral administration, ref Setnikar et al., 1960), 2 mg/kg. The IC50 is 0.0307 ± 0.0028 µM in data set [4] (absence of glucose) and 0.0462 ± 0.0058 µM in data set [4] (cells preincubated with 50 mM glucose). Moreover, the figures for the Ki in data set [4] (cells pretreated with 50 mM glucose) and in data set [4] (control cells) were 0.0198 ± 0.0016 µM and 0.0188 ± 0.0014 µM, respectively. The PWT ratio is 0.98 and 0.73 and 0.48 and 0.62 and 0.87 and 0.24 and 0.76 and 0.15 with Male Swiss Webster mice [3] (no glucose – Strychnine 0.2 mg/kg); 0.17 and 1.46 and 0.19 and 0.30 and 0.14 in the data set on Male Swiss Webster mice [3] (no glucose – Strychnine 0.5 mg/kg). The “time after which notable effects on pain sensitivity were gone” value in the data set with Male Swiss Webster mice [3] (sub-lethal amounts of strychnine, IP) is above 5 min.

The values above are taken from paper PMC6883931 (Frontiers in Molecular Neuroscience, 2019).
